In one test the target is T1, IR (Homo sapiens, UniProt P06213).
T1 construct: purchased Millipore 14-803
In words: In vitro IR enzymatic assay (ADP-Glo kinase assay). Format: biochemical. As to conditions: activated IR; for inhibition at 0.03 µM: 30 nM; for IC50: read-out: IC50. The procedure:
(§1) IC50 values of the compounds of the invention against IGF-1R and IR were measured in vitro using an ADP-Glo kinase assay Kit (Promega). […] Kinase reactions in both assays were conducted at 30° C. for 20 min with increasing concentrations of compounds of the invention.
For orientation: ADP-Glo first removes unused ATP, then detects ADP through luciferase.

Another test deals with IGF1R (Homo sapiens, UniProt P08069). The experiment in a line: In vitro IGF-1R enzymatic assay (ADP-Glo kinase assay). Format: biochemical. Conditions: activated IGF-1R; for inhibition at 0.03 µM: 30 nM; for IC50: read-out: IC50. The arrangement: purchased Millipore 14-802. As for the experimental part:
as §1

The test system of test [1] is Akt phosphorylation induced by IGF-1R in HT-29 cells. The experiment in a line: Western blot analysis of Akt phosphorylation induced by IGF-1R. It counts as cell-based, Human. Conditions: then IGF-1 10 ng/mL 10 min, HT-29. The procedure: Inhibition of Akt phosphorylation induced by IGF-1R was studied by western blot analysis. Human colon carcinoma HT-29 cells were seeded at a density of 8×10^4 cells/well in a 24-well plate and grown in DME/F12 media containing 10% FBS for 24 h. The cells were then depleted of serum by incubation in DME/F12 media lacking FBS for 24 h. […] […] Lysed cells were centrifuged at 13,000 rpm for 15 min and the protein concentration soluble fraction (supernatant) of each sample was determined using a BCA protein assay (Pierce).
Background: In western blotting, separated proteins are transferred to a membrane and probed.

Setting [2] is: average, read-out: % Inh @ 30 nM Avg.
The mark [3] stands for this setting: replicate N1, read-out: % Inh @ 30 nM (N1).
[4] abbreviates: replicate N2, read-out: % Inh @ 30 nM (N2).

Structures are written as SMILES. Where two headings read alike, the source gives them in different places.

Sequence of IGF1R (P08069 31-1367): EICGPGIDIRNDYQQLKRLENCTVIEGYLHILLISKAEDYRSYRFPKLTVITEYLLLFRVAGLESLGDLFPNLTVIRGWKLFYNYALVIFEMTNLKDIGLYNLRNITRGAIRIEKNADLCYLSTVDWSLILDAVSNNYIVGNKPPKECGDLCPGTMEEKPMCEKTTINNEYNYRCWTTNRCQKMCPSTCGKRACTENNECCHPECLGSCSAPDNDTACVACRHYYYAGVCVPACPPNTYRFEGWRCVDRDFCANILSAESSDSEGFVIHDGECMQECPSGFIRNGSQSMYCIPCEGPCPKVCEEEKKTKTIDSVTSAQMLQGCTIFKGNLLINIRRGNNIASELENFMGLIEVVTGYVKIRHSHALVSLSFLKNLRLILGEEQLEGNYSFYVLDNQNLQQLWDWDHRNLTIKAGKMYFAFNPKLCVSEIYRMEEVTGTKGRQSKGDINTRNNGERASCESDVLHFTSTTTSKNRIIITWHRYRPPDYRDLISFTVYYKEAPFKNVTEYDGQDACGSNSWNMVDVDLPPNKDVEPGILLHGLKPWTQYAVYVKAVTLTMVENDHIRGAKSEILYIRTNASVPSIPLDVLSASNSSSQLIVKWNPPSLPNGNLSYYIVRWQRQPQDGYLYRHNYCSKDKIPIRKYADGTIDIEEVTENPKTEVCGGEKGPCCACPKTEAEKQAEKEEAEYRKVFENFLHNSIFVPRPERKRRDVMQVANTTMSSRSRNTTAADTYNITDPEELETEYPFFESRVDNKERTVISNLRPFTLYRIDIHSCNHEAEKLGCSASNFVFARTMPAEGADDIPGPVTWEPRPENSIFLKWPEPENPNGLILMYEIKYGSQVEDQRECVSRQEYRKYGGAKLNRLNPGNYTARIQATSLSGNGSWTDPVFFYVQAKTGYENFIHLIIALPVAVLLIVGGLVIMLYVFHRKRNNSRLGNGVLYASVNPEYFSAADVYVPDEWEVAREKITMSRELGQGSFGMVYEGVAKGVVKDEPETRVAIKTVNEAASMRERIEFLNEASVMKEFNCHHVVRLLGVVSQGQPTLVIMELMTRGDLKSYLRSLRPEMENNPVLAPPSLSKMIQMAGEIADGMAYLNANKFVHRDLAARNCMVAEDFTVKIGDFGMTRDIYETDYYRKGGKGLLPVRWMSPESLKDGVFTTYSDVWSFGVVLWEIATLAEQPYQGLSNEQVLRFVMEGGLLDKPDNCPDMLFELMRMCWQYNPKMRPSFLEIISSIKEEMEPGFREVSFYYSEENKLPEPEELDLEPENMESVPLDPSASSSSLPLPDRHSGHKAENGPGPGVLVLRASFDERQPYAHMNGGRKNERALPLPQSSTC
T1 sequence (P06213 28-1382): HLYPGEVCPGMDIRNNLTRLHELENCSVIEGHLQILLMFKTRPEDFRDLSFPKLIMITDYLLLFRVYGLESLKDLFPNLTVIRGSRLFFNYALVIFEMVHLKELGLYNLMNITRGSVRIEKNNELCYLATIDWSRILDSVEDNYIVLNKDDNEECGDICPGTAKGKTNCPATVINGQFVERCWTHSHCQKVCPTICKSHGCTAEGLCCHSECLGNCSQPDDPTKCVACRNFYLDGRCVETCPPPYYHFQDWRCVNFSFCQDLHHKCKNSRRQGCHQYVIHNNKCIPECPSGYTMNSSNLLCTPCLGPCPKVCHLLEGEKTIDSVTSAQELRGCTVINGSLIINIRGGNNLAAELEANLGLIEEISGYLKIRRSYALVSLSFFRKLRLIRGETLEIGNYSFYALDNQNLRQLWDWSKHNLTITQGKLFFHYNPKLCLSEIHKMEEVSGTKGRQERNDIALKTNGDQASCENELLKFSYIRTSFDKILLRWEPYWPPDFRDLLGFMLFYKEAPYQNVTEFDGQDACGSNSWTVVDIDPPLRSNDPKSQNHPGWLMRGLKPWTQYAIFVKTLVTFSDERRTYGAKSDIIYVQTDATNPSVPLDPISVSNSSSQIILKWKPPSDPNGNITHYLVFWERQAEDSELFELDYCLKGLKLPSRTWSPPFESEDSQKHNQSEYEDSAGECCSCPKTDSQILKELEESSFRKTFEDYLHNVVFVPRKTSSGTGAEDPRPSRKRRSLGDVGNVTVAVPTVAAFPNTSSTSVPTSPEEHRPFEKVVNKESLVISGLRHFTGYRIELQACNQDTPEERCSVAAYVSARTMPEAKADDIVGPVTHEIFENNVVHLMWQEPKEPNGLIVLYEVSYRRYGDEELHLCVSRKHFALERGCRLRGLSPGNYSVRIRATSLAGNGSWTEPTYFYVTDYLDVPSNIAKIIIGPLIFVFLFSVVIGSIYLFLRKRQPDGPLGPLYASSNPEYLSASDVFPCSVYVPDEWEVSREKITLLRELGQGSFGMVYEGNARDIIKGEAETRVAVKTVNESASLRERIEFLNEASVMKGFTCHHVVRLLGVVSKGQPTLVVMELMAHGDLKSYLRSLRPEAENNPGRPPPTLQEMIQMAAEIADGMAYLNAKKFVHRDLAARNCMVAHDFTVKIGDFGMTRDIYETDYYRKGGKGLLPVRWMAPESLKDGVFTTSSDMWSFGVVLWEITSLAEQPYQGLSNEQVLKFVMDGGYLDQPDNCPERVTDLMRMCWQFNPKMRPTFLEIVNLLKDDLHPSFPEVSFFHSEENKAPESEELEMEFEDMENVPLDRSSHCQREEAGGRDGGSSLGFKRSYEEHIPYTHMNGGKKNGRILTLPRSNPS

Broadly, the IC50 is the concentration at which inhibition is half-maximal. Regarding `CC(C)c1cc(Nc2nc(N3CCCC3C(=O)Nc3ccc(F)nc3)nc3c2CC(C)(C)C3)n[nH]1` (racemic) [Compound 50, N-(6-fluoropyridin-3-yl)-1-(4-((5-isopropyl-1H-pyrazol-3-yl)amino)-6,6-dimethyl-6,7-dihydro-5H-cyclopenta[d]pyrimidin-2-yl)pyrrolidine-2-carboxamide], the values for the inhibition at 0.03 µM on IR (setting [2]) and on IGF1R (setting [2]) were 51% and 35%, respectively. In addition, the IC50 at IR was found to be 36 nM.
Consider `CC(C)c1cc(Nc2nc(N3CCCC3C(=O)Nc3nccs3)nc3c2CCC3)n[nH]1` (racemic) [Compound 68, 1-(4-(5-isopropyl-1H-pyrazol-3-ylamino)-6,7-dihydro-5H-cyclopenta[d]pyrimidin-2-yl)-N-(thiazol-2-yl)pyrrolidine-2-carboxamide], for which the IC50 on IR was determined as 11 nM.
On the same count and under the same terms, for `CC(C)c1cc(Nc2nc(N3CCCC3C(=O)Nc3ccncn3)nc3c2CCC3)n[nH]1` (racemic) [Compound 69, 1-(4-(5-isopropyl-1H-pyrazol-3-ylamino)-6,7-dihydro-5H-cyclopenta[d]pyrimidin-2-yl)-N-(pyrimidin-4-yl)pyrrolidine-2-carboxamide] the value was 32 nM; for `CC(C)c1cc(Nc2nc(N3CC(O)CC3C(=O)Nc3ccc(F)nc3)nc3c2CCC3)n[nH]1` (racemic) [Compound 70, N-(6-fluoropyridin-3-yl)-4-hydroxy-1-(4-(5-isopropyl-1H-pyrazol-3-ylamino)-6,7-dihydro-5H-cyclopenta[d]pyrimidin-2-yl)pyrrolidine-2-carboxamide], 22 nM.
Same read-out and setting: for `CC(C)c1cc(Nc2nc(N3CC(O)CC3C(=O)Nc3nccs3)nc3c2CCC3)n[nH]1` (racemic) [Compound 71, 4-hydroxy-1-(4-(5-isopropyl-1H-pyrazol-3-ylamino)-6,7-dihydro-5H-cyclopenta[d]pyrimidin-2-yl)-N-(thiazol-2-yl)pyrrolidine-2-carboxamide] the value was 44 nM.
Same read-out and setting: for `CC(C)c1cc(Nc2nc(N3CCCC3C(=O)Nc3ccc(N)nc3)nc3c2CCC3)n[nH]1` (racemic) [Compound 72, N-(6-aminopyridin-3-yl)-1-(4-(5-isopropyl-1H-pyrazol-3-ylamino)-6,7-dihydro-5H-cyclopenta[d]pyrimidin-2-yl)pyrrolidine-2-carboxamide] the value was 16 nM.
For `O=C(Nc1ccc(F)nc1)C1CCCCN1c1nc2c(c(Nc3cc(C4CC4)[nH]n3)n1)CCC2` (single isomer, unassigned) [Compound 9b, 1-(4-(5-cyclopropyl-1H-pyrazol-3-ylamino)-6,7-dihydro-5H-cyclopenta[d]pyrimidin-2-yl)-N-(6-fluoropyridin-3-yl)piperidine-2-carboxamide], in test [1] (100 nM compound 2 h), the “phosphorylated AKT levels normalized to actin levels (pAKT/actin)” value is listed as 0.78. The inhibition at 0.03 µM on IR (setting [2]) amounted to 6%; on IR (setting [3]), 3%; on IR (setting [4]) it was 9%; on IGF1R (setting [2]), 16%; on IGF1R (setting [3]) it was 14%; on IGF1R (setting [4]), 17%.
As for `CC(C)c1cc(Nc2nc(N3CCCC3C(=O)Nc3ccc(F)nc3)nc3c2CCCC3)n[nH]1` (single isomer, unassigned) [Compound 13b, N-(6-fluoropyridin-3-yl)-1-(4-(5-isopropyl-1H-pyrazol-3-ylamino)-5,6,7,8-tetrahydroquinazolin-2-yl)pyrrolidine-2-carboxamide], the “phosphorylated AKT levels normalized to actin levels (pAKT/actin)” value is on record as 0.22 in test [1] (0.1 nM compound 2 h), 0.09 in test [1] (1 nM compound 2 h), 0.00 in test [1] (10 nM compound 2 h) and 0.00 in test [1] (100 nM compound 2 h). In addition, the IC50 on IR worked out at 13 nM; on IGF1R, 17 nM.
`O=C(Nc1ccc(F)nc1)C1CCCN1c1nc2c(c(Nc3cc(C4CC4)[nH]n3)n1)CCCC2` (single isomer, unassigned) [Compound 14b, 1-(4-(5-cyclopropyl-1H-pyrazol-3-ylamino)-5,6,7,8-tetrahydroquinazolin-2-yl)-N-(6-fluoropyridin-3-yl)pyrrolidine-2-carboxamide]: the “phosphorylated AKT levels normalized to actin levels (pAKT/actin)” value in test [1] (0.1 nM compound 2 h) was 0.51; in test [1] (1 nM compound 2 h), 0.49; in test [1] (10 nM compound 2 h), 0.02; in test [1] (100 nM compound 2 h) it was 0.00. The inhibition at 0.03 µM at IR (setting [2]) turned out to be 81%; at IR (setting [3]), 82%; on IR (setting [4]) it was 81%; on IGF1R (setting [2]), 77%; at IGF1R (setting [3]), 77%; on IGF1R (setting [4]), 76%. In addition, the IC50 at IR turned out to be 16 nM; at IGF1R, 22 nM.
On to `O=C(Nc1ccc(F)nc1)C1CCCN1c1nc2c(c(Nc3cc(C4CCCC4)[nH]n3)n1)CCCC2` (single isomer, unassigned) [Compound 15a, 1-(4-(5-cyclopentyl-1H-pyrazol-3-ylamino)-5,6,7,8-tetrahydroquinazolin-2-yl)-N-(6-fluoropyridin-3-yl)pyrrolidine-2-carboxamide], for which the “phosphorylated AKT levels normalized to actin levels (pAKT/actin)” value in test [1] (0.1 nM compound 2 h) stood at 0.70; in test [1] (1 nM compound 2 h), 0.89; in test [1] (10 nM compound 2 h) it was 0.92; in test [1] (100 nM compound 2 h), 0.59. The inhibition at 0.03 µM at IGF1R (setting [2]) worked out at 19%; at IGF1R (setting [3]) it was 17%; on IGF1R (setting [4]) it was 20%.
On to `CC(C)c1cc(Nc2nc(N3CCCCC3C(=O)Nc3ccc(F)nc3)nc3c2CCC3)n[nH]1` (single isomer, unassigned) [Compound 16a, N-(6-fluoropyridin-3-yl)-1-(4-(5-isopropyl-1H-pyrazol-3-ylamino)-6,7-dihydro-5H-cyclopenta[d]pyrimidin-2-yl)piperidine-2-carboxamide], for which the “phosphorylated AKT levels normalized to actin levels (pAKT/actin)” value is reported as 0.82 in test [1] (0.1 nM compound 2 h), 0.62 in test [1] (1 nM compound 2 h), 0.61 in test [1] (10 nM compound 2 h) and 0.30 in test [1] (100 nM compound 2 h). Further, the figures for the inhibition at 0.03 µM on IGF1R (setting [2]) and on IGF1R (setting [3]) were 21% and 27%, respectively.
Consider `O=C(Nc1ccc(F)nc1)C1CCCCN1c1nc2c(c(Nc3cc(C4CCCC4)[nH]n3)n1)CCC2` (single isomer, unassigned) [Compound 17a, 1-(4-(5-cyclopentyl-1H-pyrazol-3-ylamino)-6,7-dihydro-5H-cyclopenta[d]pyrimidin-2-yl)-N-(6-fluoropyridin-3-yl)piperidine-2-carboxamide], for which the “phosphorylated AKT levels normalized to actin levels (pAKT/actin)” value in test [1] (0.1 nM compound 2 h) came out at 0.89. Further, the inhibition at 0.03 µM stood at 3% at IR (setting [2]); 2% on IR (setting [3]); 5% on IR (setting [4]); 18% at IGF1R (setting [2]); 12% on IGF1R (setting [3]); 24% at IGF1R (setting [4]).
`COC1CC(C(=O)Nc2ccc(F)nc2)N(c2nc3c(c(Nc4cc(C5CC5)[nH]n4)n2)CCC3)C1` (single isomer, unassigned) [Compound 21b]: the inhibition at 0.03 µM at IR (setting [2]) was found to be 30%. For the same compound, the IC50 on IR is 120 nM.

The values are drawn from patent US9422267B2, “Fused pyrimidine compounds and use thereof” (Medivation Technologies, Inc., priority 2012, dated 2016).
